# Legend:
# [1] = tested on: human non-small cell lung cancer cell line NCI-H2228 cells (EML4-ALK fusion protein-expressing cells); experiment: Inhibitory effect against anchorage-independent cell growth of NCI-H2228 cells (Test Example 3); type: cell-based; conditions: 120 h, spheroid plate, 5 days, CellTiter-Glo
# Text: Measurement for anchorage-independent cell growth (colony method, etc) has been known to be a system for investigating the anticancer action (pharmacological effect) of test compounds (Clinical Oncology, second edition, Cancer and Chemotherapy Publishers Inc.). In place of the colony method, there is a following method using spheroid plates for measuring the growth of non-attached cells.
# (§1) In a 96-well spheroid plate (Sumilon Celltight Spheroid 96U; Sumitomo Bakelite Co., Ltd., Japan), human non-small cell lung cancer cell line NCI-H2228 cells were seeded at 2000 cells per well in RPMI1640 medium (Invitrogen) containing 10% fetal bovine serum. NCI-H2228 cells are those expressing another EML4-ALK fusion protein, which is different from the EML4-ALK fusion protein v1 because it is encoded by an EML4-ALK fusion polynucleotide whose fusion point on EML4 cDNA is different from that of the EML4-ALK fusion polynucleotide v1, but whose ALK region is the same as that of the EML4-ALK fusion polynucleotide v1. The above NCI-H2228 cells seeded in the plate were cultured overnight under 5% CO2 at 37° C., followed by addition of a test compound (final concentration: 10 μM to 1 nM). As a negative control, DMSO used as a solvent was added at the same concentration as the test compound. Then, the cells were cultured under 5% CO2 at 37° C. for 5 days. A cell counting reagent (CellTiter-Glo™ Luminescent Cell Viability Assay; Promega) was added and agitated for 20 minutes, followed by measurement with a luminometer (ML3000 microtiter plate luminometer; Dynatech Laboratories).
# [2] = target: T1, EML4-ALK fusion protein v1 (Homo sapiens, UniProt Q9UM73, D1529E/I1461V/K1491R); experiment: Inhibitory activity against the kinase activity of EML4-ALK fusion protein v1 (Test Example 1); type: biochemical; conditions: ATP 100 μM, reaction 1 hour, HTRF KinEASE-TK
# T1 construct: FLAG (N); made in house
# Method: (§2) EML4-ALK fusion protein v1 (purified from BA/F3 cells expressing EML4-ALK fusion protein v1) was investigated for its phosphorylation activity toward a peptide substrate by using a kinase activity detection kit (HTRF KinEASE-TK; Cisbio Inc.). […] The ATP concentration used was 100 μM. Another reaction solution was prepared to contain the enzyme protein but no test compound (in which the solvent DMSO alone was added at 0.4% in place of the test compound), followed by reaction in the same manner with or without ATP addition. […] The concentration causing 50% inhibition (IC50) was calculated for each test compound by the logistic regression method.
# (§3) N-terminally FLAG-tagged EML4-ALK fusion protein v1 was inserted into a vector pMX-iresCD8 capable of co-expression of insert cDNA and cell surface antigen CD8 (J. Biol. Chem., 2001, vol. 276, p. 39012-39020) to create a vector FLAG-EML4-ALKv1/pMX-iresCD8 expressing both FLAG-EML4-ALKv1 and CD8. FLAG-EML4-ALKv1/pMX-iresCD8 was used to create a recombinant retrovirus in the same manner as described above and infected into mouse lymphoid cell line BA/F3 cells. Using a magnetic bead reagent for cell separation and a purification column (anti-CD8 monoclonal antibody immobilized on magnetic beads and a MiniMACS purification column; both are products of Miltenyi Biotec Inc.), cell surface CD8-expressing cells were purified conveniently. […] After washing 3 times with PBS, the cells were lysed in a lysis solution (50 mM Tris.HCl (pH 7.4), 150 mM NaCl, 1% Triton X100, 5 mM EDTA, 5 mM EGTA, 1 mM NaVO4, 1 mM DTT and protease inhibitor cocktail complete). The EML4-ALK fusion protein v1 present in the supernatant obtained after centrifugation was purified using ANTI-FLAG M2 Affinity Gel (SIGMA-ALDRICH Inc.) according to the method described in the product information document.
# (§4) The EML4-ALK fusion protein v1 purified as above was investigated for its phosphorylation activity toward a peptide substrate using a kinase activity detection kit (HTRF KinEASE-TK; Cisbio Inc.). Using TK substrate 1, which was included in the kit, as the substrate, and after adding no ATP or 100 μM ATP, the mixtures were reacted at room temperature for 1 hour, and the count of HTRF was detected as recommended by the Kits manufacturer.
# [3] = tested on: human non-small cell lung cancer cell line HCC827 cells (mutant EGFR protein-expressing cells); experiment: Inhibitory effect against anchorage-independent cell growth of HCC827 cells (Test Example 4); type: cell-based; conditions: 120 h, spheroid plate, 5 days, CellTiter-Glo
# Method: as §1
# Evaluation of Inhibitory Effect Against Anchorage-Independent Cell Growth of Human Non-Small Cell Lung Cancer Cell Line HCC827 Cells (Mutant EGFR (with Partial Deletion of Exon 19 in EGFR) Protein-Expressing Cells, American Type Culture Collection)
# Evaluation was performed in the same manner as shown in Test Example 3.
# [4] = tested on: v1 expressing 3T3 cells (tumor); experiment: Antitumor effect on v1 expressing 3T3 cells inoculated in nude mice (Test Example 13); type: in vivo; conditions: oral 10 mg/kg once a day for 14 days, started 7 days after inoculation, BALB/c nude mice
# Method: 3×10^6 cells of v1 expressing 3T3 cells suspended in PBS were inoculated subcutaneously by injection to the back of 5 weeks old male BALB/c nude mice (Charles River Japan, Inc.). […] Administrations were performed once a day for 14 days, and body weight and tumor size were measured every other day. Tumor volume was calculated using the following formula.
# [Tumor volume (mm^3)]=[Tumor major axis (mm)]×[tumor minor axis (mm)]^2×0.5
# The antitumor effect of compound D was investigated by the similar procedure with the following exceptions. The administration of the compound was started after 6 days of the inoculation and carried out once a day for 10 days.
# [5] = target: T1, EML4-ALK fusion protein v1; experiment: Inhibitory effect of compounds against the in vitro kinase activity of EML4-ALK fusion protein v1, single concentration (Test Example 12(3)); type: biochemical; conditions: final concentration 10 μM
# Text: as §3, §4
# MUSK = target: T2, MUSK (Homo sapiens, UniProt O15146); experiment: Inhibitory activity against the kinase activity of MUSK protein (Test Example 7); type: biochemical; set-up: purchased Carna Biosciences Inc., Japan; conditions: ATP 10 μM, reaction 1 hour, HTRF KinEASE-TK
# T2 sequence (O15146 24-869): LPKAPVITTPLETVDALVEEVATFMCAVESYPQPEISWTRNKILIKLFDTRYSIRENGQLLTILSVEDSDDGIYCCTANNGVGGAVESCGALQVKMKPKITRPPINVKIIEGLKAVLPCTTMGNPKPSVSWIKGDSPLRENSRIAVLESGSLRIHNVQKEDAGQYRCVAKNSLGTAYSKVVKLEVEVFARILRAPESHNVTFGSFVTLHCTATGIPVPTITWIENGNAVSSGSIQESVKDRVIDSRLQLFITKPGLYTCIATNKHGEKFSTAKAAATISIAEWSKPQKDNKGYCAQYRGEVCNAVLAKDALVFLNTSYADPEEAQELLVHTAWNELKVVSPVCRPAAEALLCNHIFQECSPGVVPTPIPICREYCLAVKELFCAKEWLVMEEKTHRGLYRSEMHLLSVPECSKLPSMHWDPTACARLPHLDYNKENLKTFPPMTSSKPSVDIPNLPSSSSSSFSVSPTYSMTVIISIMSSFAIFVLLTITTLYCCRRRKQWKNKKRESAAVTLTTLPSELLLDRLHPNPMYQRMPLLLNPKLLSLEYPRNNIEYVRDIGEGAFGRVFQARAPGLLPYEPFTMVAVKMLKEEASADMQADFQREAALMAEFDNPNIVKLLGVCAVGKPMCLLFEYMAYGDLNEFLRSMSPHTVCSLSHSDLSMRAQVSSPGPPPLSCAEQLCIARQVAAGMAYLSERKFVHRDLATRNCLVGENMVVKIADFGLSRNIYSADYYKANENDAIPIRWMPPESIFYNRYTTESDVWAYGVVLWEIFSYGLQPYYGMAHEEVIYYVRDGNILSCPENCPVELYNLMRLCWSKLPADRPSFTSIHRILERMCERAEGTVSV
# Method: as §2, with “MUSK” for “EML4-ALK fusion”, “(Carna Biosciences Inc., Japan)” for “v1 (purified from BA/F3 cells expressing EML4-ALK fusion protein v1)”, “10” for “100”
# [6] = target: T3, Mutant EGFR (L858R) protein (Homo sapiens, UniProt P00533, L858R); experiment: Inhibitory activity against the kinase activity of mutant EGFR (L858R) protein (Test Example 2); type: biochemical; conditions: ATP 5 μM, reaction 1 hour, HTRF KinEASE-TK
# T3 construct: purchased Cana Biosciences Inc., Japan (sic; Carna Biosciences)
# Method: The ATP concentration used was 5 μM. Another reaction solution was prepared to contain the enzyme protein but no test compound (in which the solvent DMSO alone was added at 0.4% in place of the test compound), followed by reaction in the same manner with or without ATP addition. […] The concentration causing 50% inhibition (IC50) was calculated for each test compound by the logistic regression method.
# T1 sequence (Q9UM73 with tags, fused parts or gaps I1461V/K1491R/D1529E): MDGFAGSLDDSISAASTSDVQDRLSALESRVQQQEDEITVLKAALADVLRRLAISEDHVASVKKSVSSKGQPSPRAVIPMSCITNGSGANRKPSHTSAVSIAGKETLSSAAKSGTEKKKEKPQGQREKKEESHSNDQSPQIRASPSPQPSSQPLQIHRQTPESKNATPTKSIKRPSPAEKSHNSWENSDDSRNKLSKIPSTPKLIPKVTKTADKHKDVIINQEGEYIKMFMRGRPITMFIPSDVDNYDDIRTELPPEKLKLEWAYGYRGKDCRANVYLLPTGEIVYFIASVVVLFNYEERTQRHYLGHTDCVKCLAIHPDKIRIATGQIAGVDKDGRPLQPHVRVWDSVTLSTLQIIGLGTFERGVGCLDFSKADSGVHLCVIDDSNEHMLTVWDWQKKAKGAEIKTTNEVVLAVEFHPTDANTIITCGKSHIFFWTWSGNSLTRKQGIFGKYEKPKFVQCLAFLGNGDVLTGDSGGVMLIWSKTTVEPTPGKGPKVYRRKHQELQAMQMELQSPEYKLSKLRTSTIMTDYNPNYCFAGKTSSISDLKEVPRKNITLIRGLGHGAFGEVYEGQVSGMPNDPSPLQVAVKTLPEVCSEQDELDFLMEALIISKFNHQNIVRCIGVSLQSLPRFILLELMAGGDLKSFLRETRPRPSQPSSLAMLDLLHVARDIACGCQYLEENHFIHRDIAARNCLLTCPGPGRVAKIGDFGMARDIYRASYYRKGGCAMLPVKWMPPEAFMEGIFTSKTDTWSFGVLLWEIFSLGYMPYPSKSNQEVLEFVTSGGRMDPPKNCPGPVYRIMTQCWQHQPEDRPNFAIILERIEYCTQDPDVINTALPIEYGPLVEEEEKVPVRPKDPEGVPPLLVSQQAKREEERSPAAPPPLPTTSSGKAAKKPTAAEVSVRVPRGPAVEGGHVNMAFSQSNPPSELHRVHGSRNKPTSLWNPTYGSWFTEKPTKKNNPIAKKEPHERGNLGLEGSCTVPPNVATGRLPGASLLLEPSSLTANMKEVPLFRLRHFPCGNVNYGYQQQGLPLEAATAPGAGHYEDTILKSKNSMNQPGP
# T3 sequence (P00533 25-1210 L858R): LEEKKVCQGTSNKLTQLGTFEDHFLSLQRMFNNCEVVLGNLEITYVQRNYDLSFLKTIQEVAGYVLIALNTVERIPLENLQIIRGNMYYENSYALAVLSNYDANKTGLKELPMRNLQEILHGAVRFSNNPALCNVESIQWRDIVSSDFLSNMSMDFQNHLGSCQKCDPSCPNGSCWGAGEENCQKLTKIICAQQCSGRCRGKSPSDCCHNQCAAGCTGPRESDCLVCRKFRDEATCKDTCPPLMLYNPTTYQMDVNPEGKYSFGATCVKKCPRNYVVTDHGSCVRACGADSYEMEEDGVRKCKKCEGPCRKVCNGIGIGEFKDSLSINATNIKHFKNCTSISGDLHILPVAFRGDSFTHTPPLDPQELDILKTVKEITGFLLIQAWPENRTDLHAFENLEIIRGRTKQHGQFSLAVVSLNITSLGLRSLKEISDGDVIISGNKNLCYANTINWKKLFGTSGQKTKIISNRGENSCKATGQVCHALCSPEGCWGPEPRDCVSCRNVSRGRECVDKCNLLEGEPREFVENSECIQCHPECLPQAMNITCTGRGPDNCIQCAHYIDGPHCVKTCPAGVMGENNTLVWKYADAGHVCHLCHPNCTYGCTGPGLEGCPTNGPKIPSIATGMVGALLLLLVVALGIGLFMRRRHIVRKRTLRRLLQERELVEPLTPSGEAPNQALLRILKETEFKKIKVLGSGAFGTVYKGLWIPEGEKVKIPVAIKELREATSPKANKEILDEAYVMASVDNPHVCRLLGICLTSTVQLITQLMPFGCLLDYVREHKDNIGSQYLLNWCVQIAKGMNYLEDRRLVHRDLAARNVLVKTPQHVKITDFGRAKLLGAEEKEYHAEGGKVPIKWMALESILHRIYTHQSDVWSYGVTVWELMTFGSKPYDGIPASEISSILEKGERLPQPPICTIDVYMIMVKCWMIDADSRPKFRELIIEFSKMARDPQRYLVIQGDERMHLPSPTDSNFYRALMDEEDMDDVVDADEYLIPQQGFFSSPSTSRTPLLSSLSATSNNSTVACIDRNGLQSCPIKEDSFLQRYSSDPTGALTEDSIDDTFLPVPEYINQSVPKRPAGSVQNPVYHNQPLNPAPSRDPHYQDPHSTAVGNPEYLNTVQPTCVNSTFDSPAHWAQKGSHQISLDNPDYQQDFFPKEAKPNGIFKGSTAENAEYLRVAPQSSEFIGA
Structure (SMILES),IC50 [1],IC50 [2],IC50 [3],melting point,inhibition at 10 µM [5],IC50 (MUSK),IC50 [6],inhibition of the growth of v1 expressing 3T3 cells (tumor) [4]
COc1cc(N(C)C2CCN(C)CC2)ccc1Nc1ncnc(Nc2ccccc2S(=O)(=O)C(C)C)n1 [Example 52],159 nM,72 nM,820 nM,,,,,
COc1cc(N2CCC3(CCCN3C)CC2)ccc1Nc1ncnc(Nc2ccccc2S(=O)(=O)C(C)C)n1 [Example 120],168 nM,74 nM,660 nM,,,,,
COc1cc(N2CCC(N3CCN(C)CC3)CC2)ccc1Nc1ncnc(Nc2ccccc2S(=O)(=O)N(C)C(C)C)n1 [Example 166],125 nM,49 nM,419 nM,162 to 164 °C,,,,
COc1cc(N2CCC3(CCCCN3C)CC2)ccc1Nc1ncnc(Nc2ccccc2S(=O)(=O)C(C)C)n1 [Example 12],134 nM,61 nM,509 nM,132 to 135 °C,,,,
COc1cc(N2CCC(N3CCN(C)CC3)CC2)ccc1Nc1ncc(Cl)c(Nc2ccccc2S(=O)(=O)C(C)C)n1 [Compound C],,,,,,,,103%
COc1cc(N2CCC(N3CCN(C)CC3)CC2)ccc1Nc1ncnc(Nc2ccccc2S(=O)(=O)NC2CC2)n1 [Example 171],61 nM,33 nM,252 nM,,,,,
"CNS(=O)(=O)c1ccccc1Nc1ncnc(Nc2ccc(N3CCC(N4CCN(C)CC4)CC3)cc2OC)n1 [Example 7, 2-{[4-({2-methoxy-4-[4-(4-methylpiperazin-1-yl)piperidin-1-yl]phenyl}amino)-1,3,5-triazin-2-yl]amino}-N-methylbenzenesulfonamide]",87 nM,50 nM,214 nM,,,,,
COc1cc(N2CCN(C3CCN(C)CC3)CC2)ccc1Nc1nc(Nc2ccccc2S(=O)(=O)C(C)C)c2ccccc2n1 [Example 45],1040 nM,66 nM,1900 nM,109 to 114 °C,,,,
COc1cc(N2CCC(N3CCN(C)CC3)CC2)ccc1Nc1ncnc(Nc2ccccc2S(=O)(=O)NC(C)C)n1 [Example 149],62 nM,40 nM,512 nM,185 to 189 °C,,,,
COc1cc(N2CCC(N3CCCC3)CC2)ccc1Nc1ncnc(Nc2ccccc2S(=O)(=O)C(C)C)n1 [Example 58],156 nM,25 nM,648 nM,,,,,
"O=C(COc1ccc(OC(F)(F)F)cc1)NCc1nc(C(=O)NCCc2cccc(Cl)c2)cs1 [Compound B, N-[2-(3-chlorophenyl)ethyl]-2-[({[4-(trifluoromethoxy)phenoxy]acetyl}amino)methyl]-1,3-thiazole-4-carboxamide]",,,,,56%,,,
COc1cc(N2CCC(N3CCN(C)CC3)CC2)ccc1Nc1ncnc(Nc2ccccc2S(=O)(=O)N(C)C)n1 [Example 128],64 nM,2.3 nM,175 nM,167 to 170 °C,,1800 nM,98 nM,

# More lines, main results first:
IC50 [1],IC50 [2],IC50 [3],melting point,inhibition at 10 µM [5],IC50 (MUSK),IC50 [6],Structure (SMILES),inhibition of the growth of v1 expressing 3T3 cells (tumor) [4]
119 nM,150 nM,496 nM,,,,,COc1cc(N2CC(N3CCN(C)CC3)C2)ccc1Nc1ncnc(Nc2ccccc2S(=O)(=O)C(C)C)n1 [Example 176],
125 nM,29 nM,1030 nM,,,,,COc1cc(N2CCN(C)CC2)ccc1Nc1ncnc(Nc2ccccc2S(=O)(=O)C(C)C)n1 [Example 24],
96 nM,26 nM,791 nM,,,,,COc1cc(N2CCC(N3CCC(O)C3)CC2)ccc1Nc1ncnc(Nc2ccccc2S(=O)(=O)C(C)C)n1 (stereo not shown) [Example 63],
,,,,99%,,,"COc1cc2ncnc(Nc3ccc(O)c(Br)c3)c2cc1OC [Compound A, 4-[(3′-bromo-4′-hydroxyphenyl)amino]-6,7-dimethoxyquinazoline]",
93 nM,51 nM,670 nM,,,,,COc1cc(N2CCNCC2)ccc1Nc1ncnc(Nc2ccccc2S(=O)(=O)C(C)C)n1 [Example 72],
